Publication PMC10674299, “Discovery of Guanfacine as a Novel TAAR1 Agonist: A Combination Strategy through Molecular Modeling Studies and Biological Assays” (Pharmaceuticals, 2023)
Read-outs that look alike come from different tables or passages of the source.

Assays:
hTAAR1 [1] = target: T1, hTAAR1 (Homo sapiens, UniProt Q96RJ0); assay: BRET-based cAMP assay in HEK293 cells transfected with hTAAR1 and cAMP biosensor; type: cell-based; details: for EC50: HEK293, dose-response 1 nM to 10 μM, IBMX 200 µM
T1 construct: Plasmid containing the cDNA for hTAAR1 was a generous gift from Hoffman-La Roche; expressed in transfected cells; host or cells: HEK293T (ATCC CRL-11268), transient transfection with Lipofectamine 2000
T1 sequence (Q96RJ0 1-339): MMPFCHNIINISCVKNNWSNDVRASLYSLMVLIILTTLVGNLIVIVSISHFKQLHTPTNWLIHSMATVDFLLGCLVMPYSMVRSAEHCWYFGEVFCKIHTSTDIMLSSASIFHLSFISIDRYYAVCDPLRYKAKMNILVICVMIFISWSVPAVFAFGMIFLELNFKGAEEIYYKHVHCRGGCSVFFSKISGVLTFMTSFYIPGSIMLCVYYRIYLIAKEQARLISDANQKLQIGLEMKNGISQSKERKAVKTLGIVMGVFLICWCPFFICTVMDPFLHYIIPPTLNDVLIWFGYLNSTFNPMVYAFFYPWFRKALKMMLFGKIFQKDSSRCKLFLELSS
Description: hTAAR1 is coupled to stimulatory G proteins and thus its activation induces an increase in the cAMP production. We measured the potential activity of guanfacine and guanabenz by using a BRET-based assay in which HEK293 cells were transfected with hTAAR1, or the empty vector as control, and the cAMP BRET biosensor. […] A dose-response experiment was performed using concentrations ranging from 1 nM to 10 μM to calculate the corresponding EC50 and the Emax values.
Human embryonic kidney 293 cells (HEK293T; ATCC CRL-11268) were maintained in Dulbecco’s Modified Eagle’s medium (DMEM; Gibco-Thermo Fisher Scientific, New York, NY, USA) supplemented with 10% (v/v) of FBS, 2 mM l-glutamine, and 0.05 mg/mL of gentamicin (both from Gibco) at 37 °C in a humidified atmosphere at 95% air and 5% CO2. Transient transfections were performed 24 h after cell seeding using the Lipofectamine reagent 2000 protocol (Invitrogen-Thermo Fisher Scientific, Carlsbad, USA). Then, 5 µg of hTAAR1 and 4 µg of cAMP biosensor protein (EPAC) encoding plasmids (the latter based on pcDNA3 core vector [59]) for each milliliter of transfection mix were used. For the BRET experiments, the cells were plated 6 h after transfection in poly-D-lysine coated 96-well white opaque microplates (Corning, New York, NY, USA) at a density of 7 × 10^4 cells per well in phenol red free Minimum Essential Medium (MEM; Gibco-Thermo Fisher Scientific, New York, NY, USA) containing 2% of FBS, 10 mM HEPES buffering agent, and 2 mM L-glutamine (all from Gibco-Thermo Fisher Scientific, New York, NY, USA). The cells were then cultured for an additional 24 h.
The BRET experiment was conducted as already described. Briefly, for time course experiments, the plate was read immediately after the addition of the agonist and for approximately 20 min. All the experiments were conducted in the presence of the phosphodiesterase inhibitor 3-isobutyl-1-methylxanthine (IBMX; Sigma-Aldrich, St. Louis, MO, USA) at the final concentration of 200 µM. Readings were collected using a Tecan Infinite instrument that allows the sequential integration of the signals detected in the 465 to 505 nm and 515 to 555 nm windows using filters with the appropriate band pass and by using iControl software. The acceptor/donor ratio was then calculated.
All the compounds were dissolved in dimethyl sulfoxide (DMSO; Sigma-Aldrich, St. Louis, MO, USA) and tested at the final concentration of 10 μM. Beta-phenylethylamine (Sigma-Aldrich, St. Louis, MO, USA) at the final concentration of 10 µM was applied as a positive control. To confirm specificity of positive responses, parallel screening on cells not transfected with the TAAR1-encoding vector was carried out. For compounds considered active, separate dose-response experiments were performed in order to calculate the EC50 values. Curves were fitted using a non-linear regression and one site specific binding with GraphPad Prism 6 (GraphPad Software). Data are representative of 4–5 independent experiments and are expressed as means, SD < 10%.

α2-ADR [2] = target: α2-ADR; parameters: method as in PMID 22795332; details: cited from earlier work
hTAAR1 [3] = target: T1, hTAAR1; details: S18616; cited from earlier work
α2-ADR [4] = details: cited from earlier work
[5] = parameters: method as in PMID 12351753; details: animal studies, cited from earlier work
DAT-KO rats = assay: Locomotor activity of DAT-KO rats (Actometer); type: in vivo, rat; details: 0.1 and 0.3 mg/kg i/p, 60 min, vs vehicle p < 0.001 and p = 0.02 (Bonferroni)
Description: To evaluate the in vivo pharmacological effect of guanfacine, we used a rodent model of hyperdopaminergia, the dopamine transporter knockout (DAT-KO) rats, that also mimics some phenotypic aspect of ADHD and has certain predictive validity for the search of novel pharmacological agents to control hyperactivity and cognitive processes in patients with this disease. […] Thus, the effect of guanfacine on hyperactivity of DAT-KO rats was evaluated.
Results are presented on Figure 15. […] We used the mixed ANOVA (the within-subject factors ‘5-min bin’ (1–12) and ‘dose’ (0.0; 0.1; 0.3 mg/kg), the between-subject factor ‘mutation’ (‘WT’; ‘KO’); the random factor ‘rat #’) on rank-transformed data to analyze results. […] Locomotor activity of the rats decreased from the 1st to the 12th bin (the effect of factor ‘5-min bin’: F(11,51) = 2.51, p = 0.01). The lack of DAT was associated with an increased level of locomotor activity (the effect of factor ‘mutation’: F(1,11) = 222.94, p < 0.001). […] We used Bonferroni’s test for post hoc comparisons. […]
The study was performed in the apparatus ‘Actometer’ described in detail before. […] Following the injection, the locomotor activity of the animals was recorded for an additional 60 min divided in 12 intervals of 5-min each. […]

mTAAR1 [6] = system: mTAAR1; parameters: method as in PMID 19725810; details: cited from earlier work
mTAAR1 [7] = system: mTAAR1; parameters: method as in doi:10.1039/C5MD00400D; details: BRET cAMP reporter; cited from earlier work
chimeric receptor cTAAR1 = target: chimeric receptor cTAAR1; parameters: method as in PMID 19725810; details: cited from earlier work

NCCc1ccccc1 [β-PEA, β-phenylethylamine]
EC50 (hTAAR1 [1]; cAMP BRET): 202 nM

CCN(Cc1ncc[nH]1)c1ccccc1 [compound 51]
Ki (α2-ADR [2]): 254 to 497 nM

NC1=NC2(CCc3cccc(Cl)c3C2)CO1 (stereo not drawn) [S18616]
EC50 (hTAAR1 [3]): 15 nM | EC50 (α2-ADR [4]; S18616): 0.7 nM

c1ccc(CC2=NCCN2)cc1 [5a]
Ki (α2-ADR [2]): 98.4 nM

c1ccc(Cc2ncc[nH]2)cc1 [6a]
Ki (α2-ADR [2]): 1880 nM

N=C(N)NC(=O)Cc1c(Cl)cccc1Cl [guanfacine]
adverse effects ([5]; higher doses (10 mg/Kg)): provoked more relevant adverse effects | effect on working memory ([5]; low doses (0.5–1 mg/Kg)): improved working memory without reducing blood pressure or causing significant sedation | type of agonism at hTAAR1 (hTAAR1 [1]; cAMP BRET, HEK293): full agonists | EC50 (hTAAR1 [1]; cAMP BRET): 20 nM | Emax (hTAAR1 [1]; cAMP BRET, HEK293, read-out: hTAAR1 Emax): > 85% | EC50 (α2-ADR [4]; guanfacine): ~25.1 nM | effect on locomotor activity (DAT-KO rats): decreased locomotor activity

CC(C)N(Cc1c[nH]cn1)c1ccc(Cl)cc1 [compound 24]
Ki (α2-ADR [2]): 840 nM

N=C(N)N/N=C/c1c(Cl)cccc1Cl [guanabenz]
EC50 (mTAAR1 [6]): 7 nM | type of agonism at mTAAR1 (mTAAR1 [6]): partial agonist | EC50 (mTAAR1 [7]): 90 nM | type of agonism at mTAAR1 (mTAAR1 [7]): full agonist | EC50 (chimeric receptor cTAAR1; chimeric human/mouse receptor): 25 nM | type of agonism at cTAAR1 (chimeric receptor cTAAR1): partial agonist | Emax (hTAAR1 [1]; HEK293, read-out: hTAAR1 Emax): > 85% | type of agonism at hTAAR1 (hTAAR1 [1]; cAMP BRET, HEK293): full agonists | EC50 (hTAAR1 [1]; cAMP BRET): 10 nM | EC50 (α2-ADR [4]; guanabenz): ~16.3 nM
